Laboratory results: US10238618B2, “Compositions and methods for diagnosis and treatment of anemia” (The United States of America as represented by the …, priority 2016, dated 2019)

What was measured:
Type in all cases: in vivo, bottlenose dolphin (Tursiops truncatus)
[1] = Serum fatty acid form concentrations (complex lipidomics) in dolphins fed modified diet; conditions: case dolphins fed modified diet (n = 20)
Experimental: (§1) Determination of serum fatty acid concentrations, including a variety of fatty acid classes, were performed by Metabolon, Inc. (Durham, N.C.) using complex lipidomics. Lipids were extracted from samples using dichloromethane and methanol in a modified Bligh-Dyer extraction in the presence of internal standards with the lower, organic, phase being used for analysis. The extracts were concentrated under nitrogen and reconstituted in 0.25 mL of dichloromethane:methanol (50:50) containing 10 mM ammonium acetate. The extracts were placed in vials for infusion-MS analyses, performed on a SelexION equipped Sciex 5500 QTRAP using both positive and negative mode electrospray. Each sample was subjected to 2 analyses, with IMS-MS conditions optimized for lipid classes monitored in each analysis. The 5500 QTRAP was operated in MRM mode to monitor the transitions for over 1,100 lipids from up to 14 lipid classes. Individual lipid species were quantified based on the ratio of signal intensity for target compounds to the signal intensity for an assigned internal standard of known concentration. Lipid class concentrations were calculated from the sum of all molecular species within a class, and fatty acid compositions were determined by calculating the proportion of individual fatty acids within each class. […]

[2] = Total serum fatty acid concentrations in dolphins fed modified diet; conditions: for concentration at 0 month / concentration at 1 month / concentration at 3 month / concentration at 6 month: bottlenose dolphin (Tursiops truncatus), Case dolphins fed modified diet (n = 20); for concentration at 0 month: Month 0 (baseline), 2 h postprandial; for concentration at 1 month: Month 1, 2 h postprandial; for concentration at 3 month: Month 3, 2 h postprandial; for concentration at 6 month: Month 6, 2 h postprandial
Experimental: CV % were typically under 10%.
as §1

red blood cell indices = test: Stepwise and simple linear regression: serum fatty acids as predictors of red blood cell indices; conditions: Group A dolphins on the modified diet
Experimental: Fatty acids that were independent predictors of red blood cell indices were then tested for linear associations with red blood cell indices using simple linear regressions.

[3] = Serum total fatty acids (% of total fatty acids), MMP dolphins versus wild Sarasota Bay dolphins
Source text: Dolphins at the Navy Marine Mammal Program (MMP) are a well-studied dolphin population with regard to chronic diseases and diseases of aging, and this population is more susceptible to anemia (lower packed cell volume and lower hemoglobin) compared to wild dolphins living in Sarasota Bay, Fla. (Table 1). MMP dolphins also have lower total serum odd chain saturated fatty acids and lower very long even chain saturated fatty acids compared to Sarasota Bay dolphins (Table 1, See also Venn-Watson et al. (2016) Increased dietary intake of saturated fatty acid heptadecanoic acid (C17:0) associated with decreasing ferritin and alleviated metabolic syndrome in dolphins. […] Proposed risk factors for anemia in MMP dolphins can include advanced age, chronic disease, and diet (see Venn-Watson S, Smith C R, Gomez F, Jensen E D (2011) Physiology of aging among healthy, older bottlenose dolphins (Tursiops truncatus): comparisons with aging humans. J Comp Phys B 181:667-680). It can be hypothesized that differences in dietary fish (and differences in certain fatty acids associated with particular types of fish) can be responsible for the risk of anemia.

[4] = wild Sarasota Bay Dolphins (n = 19)

Serum concentrations of fatty acid forms ([1]; Month 0 (baseline)) | Serum concentrations of fatty acid forms ([1]; Month 1) | Serum concentrations of fatty acid forms ([1]; Month 3) | Serum concentrations of fatty acid forms ([1]; Month 6) | Compound | also measured
0.07 ± 0.02 µM | 0.11 ± 0.03 µM | 0.13 ± 0.05 µM | 0.12 ± 0.03 µM | CCCCCCCCCCCCCCCCCCCCCCCC(=O)N[C@@H](CO)[C@H](O)CCCCCCCCCCCCCCC [C24:0 DCER] | –
– | – | – | – | CCCCCCCCCCCCCCCCC(=O)O [C17:0, heptadecanoic acid] | concentration at 0 month ([2]; serum, oral): 51 ± 9 µM; concentration at 1 month ([2]; serum, oral): 82 ± 21 µM; concentration at 3 month ([2]; serum, oral): 93 ± 23 µM; concentration at 6 month ([2]; serum, oral): 85 ± 15 µM; Increased serum concentration as independent, linear predictor of red blood cell indices (red blood cell indices): independently predicted higher hematocrit, higher packed cell volume, higher hemoglobin, and higher red blood cell counts; Serum fatty acid (%) ([3]; MMP Dolphins (n = 30)): 0.3 ± 0.1%; Serum fatty acid (%) [3, 4]: 1.3 ± 0.4%
8.5 ± 2.4 µM | 5.7 ± 1.5 µM | 5.9 ± 1.5 µM | 6.3 ± 2.1 µM | CCCCCCCCCCCCCCCCCCCCCC(=O)O[C@H]1CC[C@@]2(C)C(=CC[C@H]3[C@@H]4CC[C@H]([C@H](C)CCCC(C)C)[C@@]4(C)CC[C@@H]32)C1 [C22:0 CE] | –
0.50 ± 0.10 µM | 0.39 ± 0.08 µM | 0.42 ± 0.08 µM | 0.41 ± 0.07 µM | CCCCCCCCCCCCC/C=C/[C@@H](O)[C@H](CO)NC(=O)CCCCCCCCCCCCCCCCCCC [C20:0 CER] | –
– | – | – | – | CCCCCCCCCCCCCCC(=O)O [C15:0, pentadecanoic acid] | concentration at 0 month ([2]; serum, oral): 35 ± 9 µM; concentration at 1 month ([2]; serum, oral): 94 ± 33 µM; concentration at 3 month ([2]; serum, oral): 111 ± 29 µM; concentration at 6 month ([2]; serum, oral): 101 ± 29 µM; Increased serum concentration as independent, linear predictor of red blood cell indices (red blood cell indices): independently predicted higher hematocrit, higher packed cell volume, higher hemoglobin, and higher red blood cell counts; Serum fatty acid (%) ([3]; MMP Dolphins (n = 30)): 0.3 ± 0.1%; Serum fatty acid (%) [3, 4]: 1.1 ± 0.4%
22 ± 5 µM | 61 ± 19 µM | 66 ± 17 µM | 64 ± 22 µM | CCCCCCCCCCCCCCC(=O)O[C@H]1CC[C@@]2(C)C(=CC[C@H]3[C@@H]4CC[C@H]([C@H](C)CCCC(C)C)[C@@]4(C)CC[C@@H]32)C1 [C15:0 CE] | Increased serum concentration as independent, linear predictor of red blood cell indices (red blood cell indices): independently predicted improved red blood cell indices
0.19 ± 0.04 µM | 0.23 ± 0.05 µM | 0.26 ± 0.07 µM | 0.25 ± 0.06 µM | CCCCCCCCCCCCC/C=C/[C@@H](O)[C@H](CO)NC(=O)CCCCCCCCCCCCCCCCCCCCC [C22:0 CER] | –
– | – | – | – | CCCCCCCCCCCCCCCCCCCCCC(=O)O [C22:0, behenic acid] | concentration at 0 month ([2]; in vivo): 23 ± 4 µM; concentration at 1 month ([2]; in vivo): 21 ± 3 µM; concentration at 3 month ([2]; in vivo): 23 ± 3 µM; concentration at 6 month ([2]; in vivo): 24 ± 5 µM; Serum fatty acid (%) ([3]; MMP Dolphins (n = 30)): 0.2 ± 0.04%; Serum fatty acid (%) [3, 4]: 0.7 ± 0.2%
– | – | – | – | CCCCCCCCCCCCCCCCCCCCCCCC(=O)O [C24:0] | Serum fatty acid (%) ([3]; MMP Dolphins (n = 30)): 0.1 ± 0.0%; Serum fatty acid (%) [3, 4]: 0.5 ± 0.1%
– | – | – | – | CCCCCCCCCCCCCCCC(=O)O [C16:0, palmitic acid] | concentration at 0 month ([2]; in vivo): 1440 ± 194 µM; concentration at 1 month ([2]; in vivo): 1370 ± 199 µM; concentration at 3 month ([2]; in vivo): 1500 ± 221 µM; concentration at 6 month ([2]; in vivo): 1450 ± 155 µM; Change of total serum concentration versus Month 0 ([2]; in vivo): either did not change or decreased
126 ± 32 µM | 86 ± 21 µM | 93 ± 20 µM | 92 ± 25 µM | CCCCCCCCCCCCCC(=O)O[C@H]1CC[C@@]2(C)C(=CC[C@H]3[C@@H]4CC[C@H]([C@H](C)CCCC(C)C)[C@@]4(C)CC[C@@H]32)C1 [C14:0 CE] | –
273 ± 50 µM | 226 ± 41 µM | 244 ± 33 µM | 245 ± 48 µM | CCCCCCCCCCCCCCCC(=O)O[C@H]1CC[C@@]2(C)C(=CC[C@H]3[C@@H]4CC[C@H]([C@H](C)CCCC(C)C)[C@@]4(C)CC[C@@H]32)C1 [C16:0 CE] | –
6.6 ± 2.5 µM | 4.4 ± 1.4 µM | 5.0 ± 2.3 µM | 17 ± 10 µM | CCCCCCCCCCCCCCCCCCCC(=O)O [C20:0 FFA] | –
– | – | – | – | CCCCCCCCCCCCCCCCCCCCCCCCCC(=O)O [C26:0] | Change of total serum concentration versus Month 0 ([2]; in vivo): increased
– | – | – | – | CCCCCCCCCCCCCCCCCCCC(=O)O [C20:0] | Serum fatty acid (%) ([3]; MMP Dolphins (n = 30)): 0.9 ± 0.2%; Serum fatty acid (%) [3, 4]: 1.5 ± 0.3%
– | – | – | – | CCCCCCCCCCCCCC(=O)O [C14:0, myristic acid] | concentration at 0 month ([2]; serum, oral): 243 ± 63 µM; concentration at 1 month ([2]; serum, oral): 195 ± 50 µM; concentration at 3 month ([2]; serum, oral): 226 ± 46 µM; concentration at 6 month ([2]; serum, oral): 206 ± 33 µM
14 ± 4 µM | 18 ± 7 µM | 20 ± 8 µM | 21 ± 9 µM | CCCCCCCCCCCCCCCCC(=O)O[C@H]1CC[C@@]2(C)C(=CC[C@H]3[C@@H]4CC[C@H]([C@H](C)CCCC(C)C)[C@@]4(C)CC[C@@H]32)C1 [C17:0 CE] | –
3.8 ± 1.3 µM | 4.2 ± 1.5 µM | 3.6 ± 0.8 µM | 3.8 ± 1.3 µM | CCCCCCCCCCCCCCC(=O)O [C15:0 FFA] | –
